Measurements reported in ChEMBL document CHEMBL5150075 (J Med Chem, 2022).
Calls of active or inactive are those of the source. No cut-off for these calls is given here.

What was measured:
[1] = Toxicity in C57BL/6 mouse implanted with mouse B16-F10 cells assessed as […] at 20 mg/kg, po administered once daily and measured twice a week for 14 days; type: organism-based; conditions: in vivo, 336 h, time 14 day
[2] = Stability in monkey liver microsomes assessed as half life incubated in presence of NADPH by LC-MS/MS analysis; type: ADME, Macaca mulatta, Microsome; conditions: rhesus monkey
[3] = Mutagenicity in Salmonella typhimurium TA-102 at 0.5 to 500 ug per plate incubated for 72 hrs in presence or absence of S9 fraction by Ames test; type: toxicity, Salmonella enterica subsp. enterica serovar Typhimurium; conditions: in vivo, dose 0.5-500 µg
DU-145 [4] = experiment: Induction of G2/M phase cell cycle arrest in human DU-145 cells assessed as decrease in Cdc2 phosphorylation at T14/Y15 residue at 0.03 to 0.3 uM measured after 12 hrs by Western blot analysis; type: functional, cell-based; conditions: dose 0.03-0.3 µM
DU-145 [5] = experiment: Induction of apoptosis in human DU-145 cells assessed as increase in cleaved caspase 3 level at 0.003 to 0.3 uM incubated for 48 hrs by Western blot analysis; type: functional, cell-based; conditions: dose 0.003-0.3 µM
DU-145 [6] = experiment: Antiproliferative activity against human DU-145 cells assessed as inhibition of cell growth incubated for 96 hrs by real-time cell analysis; type: functional, cell-based; conditions: DU-145, 96 h
Tubulin (Homo sapiens) = Tubulin (Homo sapiens) (UniProt P68371+Q9H4B7+P0DPH7+P68366+Q13509+Q71U36+P04350+Q3ZCM7+P07437+P68363+Q9BQE3+Q6PEY2+Q13885+Q9BVA1+Q9BUF5); experiment: Disruption of microtubule network in human DU-145 cells assessed as reduction in alpha tubulin expression by Western blot analysis; type: cell-based; conditions: dose 0.03-0.3 µM
[7] = Mutagenicity in Salmonella typhimurium TA-1535 at 0.5 to 500 ug per plate incubated for 72 hrs in presence or absence of S9 fraction by Ames test; type: toxicity, Salmonella enterica subsp. enterica serovar Typhimurium; conditions: in vivo, dose 0.5-500 µg
[8] = Toxicity in specific pathogen-free Kunming mouse assessed as reduction in body weight at 10 mg/kg, po administered once daily and measured for 7 days; type: organism-based; conditions: in vivo, 168 h, time 7 day

For `Cc1ccc(S(=O)(=O)Nc2cc(C(=O)NCc3ccc(C)nc3)ccc2C)cc1`, the Activity [1] was “Toxic”, the half-life [2] was 95 min and the Activity [3] was “Non-Toxic”. The Activity (DU-145 [4]) was “Active”, the Activity (DU-145 [5]) was “Active” and the IC50 (DU-145 [6]) was 4 nM. For the same compound, the Activity (Tubulin (Homo sapiens)) was “Active”, the Activity [7] was “Non-Toxic” and the Activity [8] was “Non-Toxic”.
